The record followed here is patent US11414425B2 (priority 2018, dated 2022).

The target in one test is α5β3γ2 GABAA receptors (Homo sapiens, UniProt P18507+P31644). Briefly: [3H]Ro15-1788 binding, membranes of Ltk cells stably expressing α5β3γ2 GABAA receptors. The note with it: ranges; inhibition of [3H]Ro15-1788 binding.
The target of another test is T1, GABAA receptors (α5β2γ2) (Homo sapiens, UniProt P18507+P31644).
T1 construct: expressed in transfected cells
Briefly: Positive allosteric modulator activity: potentiation of EC20 GABA current in oocytes. The format is cell-based. Conditions: read-out: GABA α5 Functional Data (potentiation of EC20 GABA); @ 100 nM; ranges. The method, then: On day 1, 1 ng/32 nL of GABAA α5β2γ2 cDNA was injected into one oocyte. Test starts on day 2. The cDNA injected to the oocytes was a mix of alpha, beta and gamma, their ratio is 1:1:10 (by weight) and the total weight of the mixed 3 subunits to be injected in one oocyte was 1 ng in 32 nl volume. The injected oocytes can also be tested on day 3. In such case, the cDNA amount injected to the oocytes should be reduced by 20%.
1). 8 oocytes were placed in 8 chambers of OpusXpress and superfused with Modified Barth's Saline (MBS) at 3 mL/min. Glass electrodes back-filled with 3M KCl (0.5-3 megaohms) were used.
1). New oocytes were used to run new test.
3). […] Oocytes were washed with MBS for 5-10 min.
4). […] Itest was divided by IGABA to obtain potentiation (%).
Test Compounds at Multiple Doses • 1). Repeat the above steps 1), 2) and 3) in the control test. • 2). […] Divide Itest by IGABA to obtain potentiation (%). • 3). Discard all tested oocytes, new oocytes were used and the above steps 1) and 2) were repeated to test second concentration of the same compound. Each oocyte was used for only one concentration test for a single test compound. The steps were repeated for other test compounds.

α5β3γ2 GABAA receptors, sequence (P31644 32-462): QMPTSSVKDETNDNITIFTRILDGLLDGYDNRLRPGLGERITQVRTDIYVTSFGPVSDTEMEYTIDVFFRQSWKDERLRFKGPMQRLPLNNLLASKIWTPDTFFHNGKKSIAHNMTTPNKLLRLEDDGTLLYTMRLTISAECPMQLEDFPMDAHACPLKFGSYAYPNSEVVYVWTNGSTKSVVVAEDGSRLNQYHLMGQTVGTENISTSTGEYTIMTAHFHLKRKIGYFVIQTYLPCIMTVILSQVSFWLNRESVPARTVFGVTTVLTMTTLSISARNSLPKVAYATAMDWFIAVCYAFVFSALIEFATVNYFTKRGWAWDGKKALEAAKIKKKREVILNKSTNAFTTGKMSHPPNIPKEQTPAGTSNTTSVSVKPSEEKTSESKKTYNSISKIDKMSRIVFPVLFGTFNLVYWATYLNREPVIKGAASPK
α5β3γ2 GABAA receptors, sequence (P28472 26-473 partner): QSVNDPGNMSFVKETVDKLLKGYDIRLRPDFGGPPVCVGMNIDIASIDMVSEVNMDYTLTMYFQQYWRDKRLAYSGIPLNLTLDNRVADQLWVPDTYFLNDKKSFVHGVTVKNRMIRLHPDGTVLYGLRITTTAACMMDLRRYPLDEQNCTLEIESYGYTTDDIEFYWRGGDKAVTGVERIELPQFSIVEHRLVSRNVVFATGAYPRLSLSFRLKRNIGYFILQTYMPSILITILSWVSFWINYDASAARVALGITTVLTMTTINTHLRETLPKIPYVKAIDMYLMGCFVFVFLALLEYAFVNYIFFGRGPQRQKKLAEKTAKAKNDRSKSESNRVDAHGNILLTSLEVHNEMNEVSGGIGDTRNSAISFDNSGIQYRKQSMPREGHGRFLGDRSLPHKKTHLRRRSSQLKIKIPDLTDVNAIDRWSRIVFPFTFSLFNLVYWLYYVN
α5β3γ2 GABAA receptors, sequence (P18507 40-475): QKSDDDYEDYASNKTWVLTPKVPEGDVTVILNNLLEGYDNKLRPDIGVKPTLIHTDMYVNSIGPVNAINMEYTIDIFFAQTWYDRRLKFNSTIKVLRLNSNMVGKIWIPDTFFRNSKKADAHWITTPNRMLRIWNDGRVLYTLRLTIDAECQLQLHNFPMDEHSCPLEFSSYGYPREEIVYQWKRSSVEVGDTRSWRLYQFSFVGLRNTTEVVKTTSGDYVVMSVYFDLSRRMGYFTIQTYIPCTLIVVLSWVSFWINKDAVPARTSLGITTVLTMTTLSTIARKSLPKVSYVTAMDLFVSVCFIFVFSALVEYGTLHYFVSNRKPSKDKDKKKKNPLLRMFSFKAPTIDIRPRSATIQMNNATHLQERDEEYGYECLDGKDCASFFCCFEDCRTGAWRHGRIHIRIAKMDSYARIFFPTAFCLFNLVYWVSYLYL
T1 sequence (P31644 32-462): as the sequence (P31644 32-462) above
T1 sequence (P47870 25-512, further chain): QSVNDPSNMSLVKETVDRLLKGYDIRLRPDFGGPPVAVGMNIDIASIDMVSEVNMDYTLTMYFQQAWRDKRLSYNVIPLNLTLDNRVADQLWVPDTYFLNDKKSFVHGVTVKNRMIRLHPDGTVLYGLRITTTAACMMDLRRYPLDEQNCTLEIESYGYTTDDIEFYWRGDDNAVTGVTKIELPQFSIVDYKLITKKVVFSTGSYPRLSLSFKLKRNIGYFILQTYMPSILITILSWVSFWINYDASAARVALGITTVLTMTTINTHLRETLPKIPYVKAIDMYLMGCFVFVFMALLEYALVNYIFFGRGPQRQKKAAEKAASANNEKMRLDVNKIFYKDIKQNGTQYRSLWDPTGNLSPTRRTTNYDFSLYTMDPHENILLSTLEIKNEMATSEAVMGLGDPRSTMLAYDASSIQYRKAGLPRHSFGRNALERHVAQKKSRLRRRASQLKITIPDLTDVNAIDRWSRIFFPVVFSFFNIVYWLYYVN
T1 sequence (P18507 40-475): as the sequence (P18507 40-475) above

One may read the Ki as a dissociation constant, usually derived from enzyme kinetics or from competition with a known ligand. The low end stands for higher affinity, the high end for lower affinity. Take `C[C@]1(c2ccccc2)COC(c2ncn3c2Cc2cnnn2-c2cc(Cl)ccc2-3)=N1` [Compound 623]: the inhibition constant Ki at α5β3γ2 GABAA receptors was less than 100 nM. For the same molecule, the activation at 0.1 µM at GABAA receptors (α5β2γ2) lay in the range of 5 to 20%.
The corresponding values for `Cc1ncc(C#Cc2ncn3c2Cc2cnnn2-c2cc(Cl)ccc2-3)n1C` [Compound 666] are less than 100 nM and 20 to 50%.
For `COCc1nnc2n1Cc1c(C#Cc3cncc(C)c3)ncn1-c1ccc(Cl)cc1-2` [Compound 558], in that order: less than 100 nM and 5 to 20%.
For `COCc1nnc2n1Cc1c(C#Cc3cnc(OC)s3)ncn1-c1ccc(OC)cc1-2` [Compound 619], in that order: less than 100 nM and 5 to 20%.
For the molecule `COCc1nnc2n1Cc1c(C#Cc3ccc(OC)c(C)n3)ncn1-c1ccc(Cl)cc1-2` [Compound 581], the Ki at α5β3γ2 GABAA receptors was less than 100 nM. The activation at 0.1 µM on GABAA receptors (α5β2γ2) fell in the range of 20 to 50%.
For `COCc1nnc2n1Cc1c(C#Cc3cc(C)cnn3)ncn1-c1ccc(Cl)cc1-2` [Compound 609], the Ki at α5β3γ2 GABAA receptors is 100 to 1000 nM. Moreover, the activation at 0.1 µM on GABAA receptors (α5β2γ2) was 20 to 50%.
With `COc1ccc2c(c1)-n1nncc1Cc1c(C3=N[C@H](c4ccc(F)cc4)CO3)ncn1-2` [Compound 519], the Ki at α5β3γ2 GABAA receptors was less than 100 nM. Also, the activation at 0.1 µM on GABAA receptors (α5β2γ2) fell in the range of 20 to 50%.
At α5β3γ2 GABAA receptors, `CCc1cncc(C#Cc2ncn3c2Cn2c(COC)nnc2-c2cc(Cl)ccc2-3)c1` [Compound 604] came in with a Ki of less than 100 nM. For the same molecule, the activation at 0.1 µM on GABAA receptors (α5β2γ2) is greater than 50%.
`COCc1nnc2n1Cc1c(C#Cc3cnc(C)s3)ncn1-c1ccc(OC)cc1-2` [Compound 597] had a Ki at α5β3γ2 GABAA receptors of less than 100 nM. For the same molecule, the activation at 0.1 µM on GABAA receptors (α5β2γ2) is greater than 50%.
For `COCc1nnc2n1Cc1c(C#Cc3cnc(OC)s3)ncn1-c1ccc(Cl)cc1-2` [Compound 606, 5-((3-chloro-7-(methoxymethyl)-9H-benzo[f]imidazo[1,5-a][1,2,4]triazolo[4,3-d][1,4]diazepin-10-yl)ethynyl)-2-methoxythiazole], in that order: less than 100 nM and 20 to 50%.
The corresponding values for `COCc1nnn2c1Cc1c(C3=NC[C@H](c4ccc(Cl)cc4)O3)ncn1-c1ccc(Cl)cc1-2` [Compound 635] are less than 100 nM and 5 to 20%.
For `COCc1nnc2n1Cc1c(C#Cc3cnc4occc4c3)ncn1-c1ccc(Cl)cc1-2` [Compound 680], in that order: less than 100 nM and 20 to 50%.
In the case of `COCc1nnc2n1Cc1c(C#Cc3ccn4ccnc4c3)ncn1-c1ccc(Cl)cc1-2` [Compound 679], the Ki at α5β3γ2 GABAA receptors was less than 100 nM. Moreover, on GABAA receptors (α5β2γ2), the activation at 0.1 µM is greater than 50%.
On α5β3γ2 GABAA receptors, `COCc1nnn2c1Cc1c(C#Cc3ccc(OC)nc3)ncn1-c1ccc(OC)cc1-2` [Compound 641] showed a Ki of less than 100 nM. Moreover, on GABAA receptors (α5β2γ2), the activation at 0.1 µM was 20 to 50%.
As to `COc1ccc(C#Cc2ncn3c2Cc2cnnn2-c2cc(C(F)(F)F)ccc2-3)cc1` [Compound 499], the Ki at α5β3γ2 GABAA receptors was less than 100 nM. Moreover, the activation at 0.1 µM at GABAA receptors (α5β2γ2) lay in the range of 20 to 50%.
The corresponding values for `Clc1ccc([C@@H]2COC(c3ncn4c3Cc3cnnn3-c3cc(Cl)ccc3-4)=N2)cc1` [Compound 518] are less than 100 nM and 5 to 20%.
The corresponding values for `COc1ccc2c(c1)-n1nncc1Cc1c(C3=NCC(c4ccccn4)O3)ncn1-2` (centres unmarked) [Compound 628] are less than 100 nM and 20 to 50%.
For `Clc1cccc([C@@H]2COC(c3ncn4c3Cc3cnnn3-c3cc(Cl)ccc3-4)=N2)c1` [Compound 515], in that order: less than 100 nM and 5 to 20%.
Molecule `COCc1nnc2n1Cc1c(C#Cc3ccc(OC)nn3)ncn1-c1ccc(Cl)cc1-2` [Compound 707] yielded a Ki at α5β3γ2 GABAA receptors of less than 100 nM. Moreover, the activation at 0.1 µM on GABAA receptors (α5β2γ2) was greater than 50%.
For the molecule `COc1ccc(C#Cc2ncn3c2Cc2cnnn2-c2cc(OC)ccc2-3)nc1` [Compound 531], the Ki at α5β3γ2 GABAA receptors is less than 100 nM. At GABAA receptors (α5β2γ2), the activation at 0.1 µM was 5 to 20%.
The corresponding values for `CC(C)c1nc(-c2ncn3c2Cc2cnnn2-c2cc(Cl)ccc2-3)no1` [Compound 538] are less than 100 nM and 20 to 50%.
The corresponding values for `Clc1ccc2c(c1)-n1nncc1Cc1c(C3=NC[C@@H](c4ccccc4)O3)ncn1-2` [Compound 514] are less than 100 nM and 5 to 20%.
At α5β3γ2 GABAA receptors, `COc1ccc2c(c1)-n1nncc1Cc1c(C#Cc3ccc(OC)nc3)ncn1-2` [Compound 530] gave a Ki of less than 100 nM. Moreover, the activation at 0.1 µM at GABAA receptors (α5β2γ2) fell in the range of 5 to 20%.
In the case of `COc1ccc([C@@H]2COC(c3ncn4c3Cc3cnnn3-c3cc(OC)ccc3-4)=N2)cc1` [Compound 520], on α5β3γ2 GABAA receptors, the Ki was less than 100 nM. Further, the activation at 0.1 µM at GABAA receptors (α5β2γ2) was in the range of 5 to 20%.
The corresponding values for `COc1ccc2c(c1)-n1nncc1Cc1c(C#Cc3ccnn3C)ncn1-2` [Compound 669] are less than 100 nM and greater than 50%.
`Brc1ccc2c(c1)-n1nncc1Cc1c(C3=N[C@H](c4ccccc4)CO3)ncn1-2` [Compound 505]: the Ki at α5β3γ2 GABAA receptors is less than 100 nM. At GABAA receptors (α5β2γ2), the activation at 0.1 µM was in the range of 20 to 50%.
The molecule `COc1ccc2c(c1)-n1nncc1Cc1c(C#Cc3cncc(C)c3)ncn1-2` [Compound 617] showed a Ki at α5β3γ2 GABAA receptors of less than 100 nM. For the same molecule, at GABAA receptors (α5β2γ2), the activation at 0.1 µM is 5 to 20%.
The corresponding values for `COc1ccc2c(c1)-n1nncc1Cc1c(C3=N[C@@H](c4ccc(F)cc4)CO3)ncn1-2` [Compound 367] are less than 100 nM and 5 to 20%.
For the molecule `COCc1nnn2c1Cc1c(C#CC(C)(C)C)ncn1-c1ccc(Cl)cc1-2` [Compound 640], the Ki on α5β3γ2 GABAA receptors was less than 100 nM. The activation at 0.1 µM on GABAA receptors (α5β2γ2) is 20 to 50%.
On to `COc1ccc2c(c1)-n1nncc1Cc1c(C3=N[C@H](c4cccc(Cl)c4)CO3)ncn1-2` [Compound 516], for which the Ki at α5β3γ2 GABAA receptors is less than 100 nM. Besides, at GABAA receptors (α5β2γ2), the activation at 0.1 µM fell in the range of 5 to 20%.
For `COCc1nnc2n1Cc1c(C#Cc3nc(C)cs3)ncn1-c1ccc(Cl)cc1-2` [Compound 605], in that order: less than 100 nM and greater than 50%.
The corresponding values for `COCc1nnc2n1Cc1c(C#Cc3ccnc(OC)c3)ncn1-c1ccc(OC)cc1-2` [Compound 567] are less than 100 nM and 5 to 20%.
The corresponding values for `COCc1nnn2c1Cc1c(C#Cc3cnc(OC)s3)ncn1-c1ccc(Cl)cc1-2` [Compound 644] are less than 100 nM and 20 to 50%.
On α5β3γ2 GABAA receptors, `COc1ccc2c(c1)-n1nncc1Cc1c(C3=NCC(c4ccncc4)O3)ncn1-2` (centres unmarked) [Compound 630] yielded a Ki of less than 100 nM. In addition, on GABAA receptors (α5β2γ2), the activation at 0.1 µM is 20 to 50%.
For `COCc1nnc2n1Cc1c(C#Cc3ccn(C)n3)ncn1-c1ccc(Cl)cc1-2` [Compound 683], in that order: less than 100 nM and greater than 50%.
The corresponding values for `FC(F)(F)Oc1ccc2c(c1)-n1nncc1Cc1c(-c3ncco3)ncn1-2` [Compound 476] are less than 100 nM and 5 to 20%.
In turn, `FC(F)(F)c1ccc(C#Cc2ncn3c2Cc2cnnn2-c2cc(Cl)ccc2-3)nc1` [Compound 701] yielded a Ki on α5β3γ2 GABAA receptors of less than 100 nM. Further, at GABAA receptors (α5β2γ2), the activation at 0.1 µM is 5 to 20%.
`COCc1nnc2n1Cc1c(C#Cc3cnccn3)ncn1-c1ccc(Cl)cc1-2` [Compound 576] registered a Ki on α5β3γ2 GABAA receptors of less than 100 nM. Also, on GABAA receptors (α5β2γ2), the activation at 0.1 µM lay within 20 to 50%.
`COCc1nnc2n1Cc1c(C#Cc3ccc4nccn4c3)ncn1-c1ccc(Cl)cc1-2` [Compound 678] returned an inhibition constant Ki on α5β3γ2 GABAA receptors of less than 100 nM. Besides, the activation at 0.1 µM on GABAA receptors (α5β2γ2) is 20 to 50%.
For `COCc1nnc2n1Cc1c(C#Cc3cnc(C)n3C)ncn1-c1ccc(OC)cc1-2` [Compound 672], in that order: less than 100 nM and greater than 50%.
As for `COCc1nnn2c1Cc1c(C#Cc3ccc(OC)cn3)ncn1-c1ccc(Cl)cc1-2` [Compound 637], at α5β3γ2 GABAA receptors, the Ki was less than 100 nM. Besides, the activation at 0.1 µM on GABAA receptors (α5β2γ2) fell in the range of 20 to 50%.
Turning to `CC(C)c1noc(-c2ncn3c2Cc2c(Cc4ccc(F)cc4)nnn2-c2cc(OC(F)F)ccc2-3)n1` [Compound 494], the Ki on α5β3γ2 GABAA receptors was less than 100 nM. Also, on GABAA receptors (α5β2γ2), the activation at 0.1 µM is 20 to 50%.
Take `COCc1nnc2n1Cc1c(C#Cc3cnccn3)ncn1-c1ccc(OC)cc1-2` [Compound 589]: the Ki on α5β3γ2 GABAA receptors was less than 100 nM. Further, on GABAA receptors (α5β2γ2), the activation at 0.1 µM is greater than 50%.
Turning to `FC(F)(F)c1ccc2c(c1)-n1nncc1Cc1c(C#CC3(c4ccccc4)CC3)ncn1-2` [Compound 503], the Ki at α5β3γ2 GABAA receptors was less than 100 nM. Also, on GABAA receptors (α5β2γ2), the activation at 0.1 µM lay in the range of 5 to 20%.
The corresponding values for `Clc1ccc2c(c1)-n1nncc1Cc1c(-c3cn(Cc4ccccc4)nn3)ncn1-2` [Compound 523] are less than 100 nM and 5 to 20%.
The corresponding values for `FC(F)(F)c1ccc2c(c1)-n1nncc1Cc1c(C3=NC[C@@H](c4ccccc4)O3)ncn1-2` [Compound 624] are less than 100 nM and 5 to 20%.
The corresponding values for `COCc1nnc2n1Cc1c(C#Cc3cnc(C)n3C)ncn1-c1ccc(Cl)cc1-2` [Compound 671] are less than 100 nM and greater than 50%.
The molecule `COc1ccc([C@@H]2COC(c3ncn4c3Cc3cnnn3-c3cc(Cl)ccc3-4)=N2)cc1` [Compound 521] showed a Ki at α5β3γ2 GABAA receptors of less than 100 nM. For the same molecule, the activation at 0.1 µM at GABAA receptors (α5β2γ2) lay in the range of 20 to 50%.
At α5β3γ2 GABAA receptors, `COCc1nnc2n1Cc1c(C#Cc3ccc(OC)nc3)ncn1-c1ccc(Cl)cc1-2` [Compound 527] registered a Ki of less than 100 nM. The activation at 0.1 µM on GABAA receptors (α5β2γ2) was in the range of 20 to 50%.
